The results in this text go back to US12227496B2 (BRISTOL-MYERS SQUIBB COMPANY, priority 2019, dated 2025).

In general, EC50 refers to the concentration that produces a half-maximal response. Low values mean higher potency in that assay, high ones lower potency in that assay.

The experiment concerns the target T1, human FXR (Homo sapiens, UniProt Q96RI1).
T1 construct: expressed in transfected cells; host or cells: HEK293 cells stably carrying a 5xGal4-response-element firefly luciferase reporter, transiently transfected with pcDNA3.1-Gal4-FXR
T1 sequence (Q96RI1 262-486 limits assumed): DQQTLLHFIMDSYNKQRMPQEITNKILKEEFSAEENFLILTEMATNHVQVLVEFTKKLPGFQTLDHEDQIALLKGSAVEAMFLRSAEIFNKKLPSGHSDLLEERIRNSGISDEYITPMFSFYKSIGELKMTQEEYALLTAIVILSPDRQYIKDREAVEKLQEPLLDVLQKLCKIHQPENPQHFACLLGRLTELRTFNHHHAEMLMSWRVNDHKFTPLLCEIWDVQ
The experiment can be described thus: transient human FXR/Gal4-luciferase reporter assay. Particulars: Gal4-hFXR LBD fusion, luciferase reporter in HEK293 cells; response relative to 8 μM GW-4064. In kind it is cell-based. The method in brief: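 HEK293 cells stably carrying a 5×Gal4-response-element firefly luciferase reporter were transiently transfected with Gal4-hFXR. They were then incubated overnight at 37 °C with compound serial dilutions in medium containing 10% charcoal/dextran-stripped FBS. Luminescence was read after Steady-Glo addition.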
Background: In a reporter assay the amount or activity of a reporter protein is the signal.
In turn, `CCOc1ncc(-c2cccc(N(CC34CCC(c5noc(C(C)(C)C)n5)(CC3)CC4)C(=O)C3CCOCC3)c2)cn1` [Example 88, N-((4-(5-(tert-butyl)-1,2,4-oxadiazol-3-yl)bicyclo[2.2.2]octan-1-yl)methyl)-N-(3-(2-ethoxypyrimidin-5-yl)phenyl)tetrahydro-2H-pyran-4-carboxamide] yielded an EC50 of 227 nM. With `O=C(C1CCC(F)(F)CC1)N(CC12CCC(c3nc(CC4CC4)no3)(CC1)CC2)c1cccc(-c2nc(C3CC3)no2)c1` [Example 46, N-(3-(3-cyclopropyl-1,2,4-oxadiazol-5-yl)phenyl)-N-((4-(3-(cyclopropylmethyl)-1,2,4-oxadiazol-5-yl)bicyclo[2.2.2]octan-1-yl)methyl)-4,4-difluorocyclohexane-1-carboxamide], the EC50 amounted to 633 nM.

`CCOc1ccc(-c2cccc(N(CC34CCC(c5nc(C(C)(C)C)no5)(CC3)CC4)C(=O)C3CCC(OC)CC3)c2)cc1` (single isomer, unassigned) [Example 145, N-((4-(3-(tert-butyl)-1,2,4-oxadiazol-5-yl)bicyclo[2.2.2]octan-1-yl)methyl)-N-(4′-ethoxy-[1,1′-biphenyl]-3-yl)-4-methoxycyclohexane-1-carboxamide]: a half-maximal effect (EC50) was put at 303 nM. Under `CC(F)(F)c1nc(C23CCC(CN(C(=O)C4CCS(=O)(=O)CC4)c4cccc(-c5cc(C6CC6)on5)c4)(CC2)CC3)no1` [Example 155, N-(3-(5-cyclopropylisoxazol-3-yl)phenyl)-N-((4-(5-(1,1-difluoroethyl)-1,2,4-oxadiazol-3-yl)bicyclo[2.2.2]octan-1-yl)methyl)tetrahydro-2H-thiopyran-4-carboxamide 1,1-dioxide] stands 289 nM. Consider `O=C(C1CCC(F)(F)CC1)N(CC12CCC(c3noc(C(F)(F)F)n3)(CC1)CC2)c1cccc(-c2cnc(C3CC3)nc2)c1` [Example 119, N-(3-(2-cyclopropylpyrimidin-5-yl)phenyl)-4,4-difluoro-N-((4-(5-(trifluoromethyl)-1,2,4-oxadiazol-3-yl)bicyclo[2.2.2]octan-1-yl)methyl)cyclohexane-1-carboxamide], for which the midpoint of the response, the EC50, lay at 290 nM. Compound `CCn1cc(-c2cccc(N(CC34CCC(c5nc(C6CC6)no5)(CC3)CC4)C(=O)C3CCCOC3)c2)oc1=O` (racemic) [Example 52, N-((4-(3-cyclopropyl-1,2,4-oxadiazol-5-yl)bicyclo[2.2.2]octan-1-yl)methyl)-N-(3-(3-ethyl-2-oxo-2,3-dihydrooxazol-5-yl)phenyl)tetrahydro-2H-pyran-3-carboxamide] registered an EC50 of 1330 nM. In turn, `CC1CCN(C(=O)N(CC23CCC(c4nc(C5CC5)no4)(CC2)CC3)c2cccc(-c3nc(C4CC4)no3)c2)CC1` [Example 60, N-((4-(3-cyclopropyl-1,2,4-oxadiazol-5-yl)bicyclo[2.2.2]octan-1-yl)methyl)-N-(3-(3-cyclopropyl-1,2,4-oxadiazol-5-yl)phenyl)-4-methylpiperidine-1-carboxamide] had an EC50 of 1020 nM. As for `COc1cc(-c2cccc(N(CC34CCC(c5nc(C)no5)(CC3)CC4)C(=O)C3CCCCC3)c2)ccn1` [Example 73, N-(3-(2-methoxypyridin-4-yl)phenyl)-N-((4-(3-methyl-1,2,4-oxadiazol-5-yl)bicyclo[2.2.2]octan-1-yl)methyl)cyclohexane carboxamide], a half-maximal response (EC50) required 517 nM.

With `CC(C)(C)c1noc(C23CCC(CN(C(=O)C4CCC(F)(F)CC4)c4cccc(-c5cnn6cc(Cl)cnc56)c4)(CC2)CC3)n1` [Example 141, N-((4-(3-(tert-butyl)-1,2,4-oxadiazol-5-yl)bicyclo[2.2.2]octan-1-yl)methyl)-N-(3-(6-chloropyrazolo[1,5-a]pyrimidin-3-yl)phenyl)-4,4-difluorocyclohexane-1-carboxamide], it took 549 nM to reach a half-maximal effect (EC50). `CCOc1ccnc(-c2cccc(N(CC34CCC(c5nc(C6CC6)no5)(CC3)CC4)C(=O)C3CCCCC3)c2)c1` [Example 77, N-((4-(3-cyclopropyl-1,2,4-oxadiazol-5-yl)bicyclo[2.2.2]octan-1-yl)methyl)-N-(3-(4-ethoxypyridin-2-yl)phenyl)cyclohexane carboxamide] had an EC50 of 268 nM.
